For twelve compounds, IC50, GI50 and inhibition results are on record in ChEMBL document CHEMBL1149560, “Discovery of a potent CDK2 inhibitor with a novel binding mode, using virtual screening and initial, structure-guided lead scoping” (Bioorg Med Chem Lett, 2007).

Some results are limits rather than exact numbers.

What is called IC50 is the concentration that gives 50% inhibition. Higher therefore signals lower potency. The term GI50 denotes the concentration giving 50% growth inhibition. A word on the inhibition: it is the percentage by which the read-out fell short of the control.

Experiment [1] addresses Cyclin-dependent kinase 2 (Homo sapiens, UniProt P24941). Nature of the experiment: Inhibition of CDK2.
Another experiment has as its system HCT-116. Nature of the experiment: Antiproliferative activity against HCT116 cells by SRB assay after 72 hrs. Type of experiment: functional. Particulars: Homo sapiens, HCT-116, 72 h.
Experiment [2] has as its target Glycogen synthase kinase-3 beta (Homo sapiens, UniProt P49841). Kind of experiment: Inhibition of GSK3-beta.
In experiment [3] the target is RAC-alpha serine/threonine-protein kinase (Homo sapiens) (UniProt P31749). Nature of the experiment: Inhibition of AKT at 10 uM.
Sequence of RAC-alpha serine/threonine-protein kinase (Homo sapiens) (P31749 whole entry): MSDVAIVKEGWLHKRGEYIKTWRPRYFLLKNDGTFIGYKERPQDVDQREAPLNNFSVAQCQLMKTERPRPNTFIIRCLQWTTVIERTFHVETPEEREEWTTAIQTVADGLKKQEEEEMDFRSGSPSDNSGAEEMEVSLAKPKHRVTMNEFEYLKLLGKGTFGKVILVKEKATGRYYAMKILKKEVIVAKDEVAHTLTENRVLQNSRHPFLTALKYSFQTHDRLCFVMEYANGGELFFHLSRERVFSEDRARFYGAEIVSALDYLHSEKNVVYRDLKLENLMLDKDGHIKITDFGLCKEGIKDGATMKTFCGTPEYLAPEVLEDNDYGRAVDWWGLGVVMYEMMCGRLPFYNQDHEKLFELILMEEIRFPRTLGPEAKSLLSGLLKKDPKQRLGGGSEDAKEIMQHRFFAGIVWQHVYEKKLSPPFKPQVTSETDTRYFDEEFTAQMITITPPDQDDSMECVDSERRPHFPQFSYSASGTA
Experiment [4] in a line: Inhibition of PKA. The arrangement: species or system Homo sapiens.
In experiment [5] the target is T1, Serine/threonine-protein kinase Chk1 (Homo sapiens) (UniProt O14757).
T1 sequence (whole entry): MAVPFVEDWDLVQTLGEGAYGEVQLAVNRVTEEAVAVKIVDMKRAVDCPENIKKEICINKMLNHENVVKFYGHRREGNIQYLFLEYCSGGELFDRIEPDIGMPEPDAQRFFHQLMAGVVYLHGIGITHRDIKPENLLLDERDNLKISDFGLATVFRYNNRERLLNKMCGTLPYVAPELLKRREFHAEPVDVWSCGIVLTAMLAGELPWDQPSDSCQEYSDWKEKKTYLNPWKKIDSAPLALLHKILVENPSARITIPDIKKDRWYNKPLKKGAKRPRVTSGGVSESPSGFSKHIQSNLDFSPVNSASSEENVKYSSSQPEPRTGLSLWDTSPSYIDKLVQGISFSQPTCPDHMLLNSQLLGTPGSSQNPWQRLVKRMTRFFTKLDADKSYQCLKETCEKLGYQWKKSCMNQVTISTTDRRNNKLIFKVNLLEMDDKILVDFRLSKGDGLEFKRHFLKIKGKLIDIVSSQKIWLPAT
Nature of the experiment: Inhibition of Chk1 at 50 uM.

Sequence of Glycogen synthase kinase-3 beta (P49841 whole entry): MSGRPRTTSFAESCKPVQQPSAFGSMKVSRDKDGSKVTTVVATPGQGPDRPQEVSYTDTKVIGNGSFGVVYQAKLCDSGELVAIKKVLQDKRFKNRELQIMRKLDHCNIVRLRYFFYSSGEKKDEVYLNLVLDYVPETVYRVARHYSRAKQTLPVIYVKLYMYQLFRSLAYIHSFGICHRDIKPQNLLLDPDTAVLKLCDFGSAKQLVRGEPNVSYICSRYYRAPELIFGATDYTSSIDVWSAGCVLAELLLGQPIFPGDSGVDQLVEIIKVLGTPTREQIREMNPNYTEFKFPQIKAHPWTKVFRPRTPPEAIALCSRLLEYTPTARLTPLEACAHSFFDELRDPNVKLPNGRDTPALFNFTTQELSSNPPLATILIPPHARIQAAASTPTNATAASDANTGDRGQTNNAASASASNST

In the case of `N=C1NC(=O)/C(=C/c2ccc(-c3ccccc3[N+](=O)[O-])o2)S1`, the IC50 in experiment [1] came out at 19 µM. Further, the GI50 with HCT-116 was over 80 µM.

On to `N=C1NC(=O)/C(=C/c2ccc(-c3ccc(C(=O)O)cc3)o2)S1`, for which the 50% growth inhibitory concentration (GI50) with HCT-116 is over 80 µM.

`N=C1NC(=O)/C(=C/c2ccc(-c3ccc(S(=O)(=O)N4CCOCC4)cc3)o2)S1` came in with an IC50 in experiment [1] of 150 µM.

As for `N=C1NC(=O)/C(=C/c2ccc(-c3ccc(S(=O)(=O)N4CCNCC4)cc3)o2)S1`, in experiment [1], the IC50 came out at 2.9 µM. In addition, the GI50 with HCT-116 is over 80 µM.

`CNS(=O)(=O)c1ccc(-c2ccc(/C=C3\SC(=N)NC3=O)o2)cc1` had an IC50 in experiment [2] of 0.08 µM. Moreover, the GI50 with HCT-116 was over 80 µM.

As for `CN(C)CCNS(=O)(=O)c1ccc(-c2ccc(/C=C3\SC(=N)NC3=O)o2)cc1`, the results for the IC50 in experiment [1] and in experiment [2] were 0.57 µM and 0.51 µM, respectively. Moreover, the GI50 in the experiment with HCT-116 is over 80 µM.

With `N=C1NC(=O)/C(=C/c2ccc(-c3ccc(S(N)(=O)=O)c(Cl)c3)o2)S1`, the results for the IC50 in experiment [1] and in experiment [2] were 0.57 µM and 0.014 µM, respectively. The GI50 in the experiment with HCT-116 is over 80 µM.

Turning to `C/C(=C1/SC(=N)NC1=O)c1ccc(-c2ccc(S(N)(=O)=O)cc2)o1`, the IC50 in experiment [2] amounted to 0.43 µM. Moreover, the GI50 in the experiment on HCT-116 is over 80 µM.

In the case of `N=C1NC(=O)/C(=C/c2ccc(-c3ccc(C(N)=O)cc3)o2)S1`, the IC50 in experiment [1] was 9.3 µM. In addition, the GI50 in the experiment on HCT-116 was over 80 µM.

In the experiment on HCT-116, `NS(=O)(=O)c1ccc(-c2ccc(/C=C3\SC(=O)NC3=O)o2)cc1` had a GI50 of over 80 µM.

For the compound `N=C1NC(=O)/C(=C/c2ccc(-c3ccc(S(N)(=O)=O)c(C(F)(F)F)c3)o2)S1`, in experiment [2], the IC50 worked out at 0.002 µM. Moreover, the GI50 with HCT-116 was over 80 µM.

As to `N=C1NC(=O)/C(=C/c2ccc(-c3ccc(S(N)(=O)=O)cc3)o2)S1`, the inhibition in experiment [3] came out at 54%; in experiment [5] it was 44%. Also, the IC50 in experiment [4] was found to be 77 µM; in experiment [2], 0.25 µM. This compound also displayed a GI50 in the experiment with HCT-116 of over 80 µM.
